According to ChEMBL document CHEMBL1201862, “PubChem BioAssay data set” (2004):
Calls of active or inactive are those of the source.

Legend:
[1] = Luminescence Cell-Based Dose Retest to Confirm Inhibitors of Cancer Stem Cells. [Related pubchem assays (depositor defined):AID2717, AID2721]; type: functional; conditions: Homo sapiens
HEK293 = assay: EBV LMP1 TES2 canonical NF-kB signalling blockers – cell-based, HEK293, luciferase, cherry-pick, dose response (AID 588343); type: functional; conditions: Homo sapiens
INS1 = assay: INS-1E survival protection against cytokine death – cell-based, luminescence, retest, dose response (AID 449756); type: functional; conditions: Rattus norvegicus;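 also: cell death triggered by IL-1 beta plus TNF-alpha plus IFN-gamma mixture; protective hits raise ATP signal compared with cytokine alone wells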
[2] = HGIII-sPLA2 enzyme inhibition potency – biochemical, QFRET, IC50, dose response (AID 743457);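 also: green fluorescence rise as the enzyme cleaves BODIPY PC-A2 in liposomes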
[3] = target: T1, Carboxy-terminal domain RNA polymerase II polypeptide A small phosphatase 1 (Homo sapiens, UniProt Q9GZU7); assay: CTDSP1 inhibitors, concentration-response, biochemical, absorbance readout, ultra-high-throughput screen actives (AID 540297); type: functional
T1 sequence (Q9GZU7 whole entry): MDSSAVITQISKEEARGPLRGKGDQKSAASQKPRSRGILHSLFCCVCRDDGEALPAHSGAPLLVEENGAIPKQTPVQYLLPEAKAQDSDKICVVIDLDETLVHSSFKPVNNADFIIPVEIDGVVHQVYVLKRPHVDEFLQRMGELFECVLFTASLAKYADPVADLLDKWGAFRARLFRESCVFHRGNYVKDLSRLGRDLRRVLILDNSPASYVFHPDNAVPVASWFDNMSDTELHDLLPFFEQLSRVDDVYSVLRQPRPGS

[4] = target: Tyrosine-protein phosphatase non-receptor type 11 (Homo sapiens, UniProt Q06124); assay: PTPN11 enzyme inhibitors – biochemical, selectivity assay for STEP inhibitor project, dose response (AID 602367); type: functional; conditions: read-out: IC50_Mean
[5] = target: Tyrosine-protein phosphatase non-receptor type 5 (Homo sapiens, UniProt P54829); assay: PTPN5 enzyme inhibition – biochemical, fluorescence intensity, uHTS hits, confirmation (AID 602372); type: functional; conditions: read-out: IC50_Mean
[6] = target: Dual specificity protein phosphatase 3 (Homo sapiens, UniProt P51452); assay: VHR phosphatase inhibition, dose response, selectivity assay for STEP inhibitor project, biochemical (AID 602374); type: functional; conditions: read-out: IC50_Mean
[7] = target: T2, Small ubiquitin-related modifier 1 (Homo sapiens, UniProt P63165); assay: SUMO1 protein interaction blockers, potency – biochemical, fluorescence polarization, uHTS hits, dose response (AID 624382); type: functional; conditions: read-out: IC50_Mean
[8] = target: T3, Low molecular weight phosphotyrosine protein phosphatase (Homo sapiens, UniProt P24666); type: functional; conditions: read-out: IC50_Mean
T3 sequence (P24666 whole entry): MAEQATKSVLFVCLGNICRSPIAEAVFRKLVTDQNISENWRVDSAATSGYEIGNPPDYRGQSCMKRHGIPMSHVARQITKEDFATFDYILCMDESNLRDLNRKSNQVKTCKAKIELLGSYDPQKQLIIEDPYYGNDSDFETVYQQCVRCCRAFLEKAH

[9] = target: T2, Small ubiquitin-related modifier 1; assay: SUMO1 protein-protein binding blockers, potency – biochemical, FRET, dose response (AID 624383); type: functional; conditions: read-out: IC50_Mean
[10] = target: T4, Tyrosine-protein phosphatase non-receptor type 22 (Homo sapiens, UniProt Q9Y2R2); assay: lymphoid phosphatase LYP inhibitors – biochemical, selectivity assay for STEP inhibitor project, dose response (AID 624241); type: functional
T4 sequence (Q9Y2R2 whole entry): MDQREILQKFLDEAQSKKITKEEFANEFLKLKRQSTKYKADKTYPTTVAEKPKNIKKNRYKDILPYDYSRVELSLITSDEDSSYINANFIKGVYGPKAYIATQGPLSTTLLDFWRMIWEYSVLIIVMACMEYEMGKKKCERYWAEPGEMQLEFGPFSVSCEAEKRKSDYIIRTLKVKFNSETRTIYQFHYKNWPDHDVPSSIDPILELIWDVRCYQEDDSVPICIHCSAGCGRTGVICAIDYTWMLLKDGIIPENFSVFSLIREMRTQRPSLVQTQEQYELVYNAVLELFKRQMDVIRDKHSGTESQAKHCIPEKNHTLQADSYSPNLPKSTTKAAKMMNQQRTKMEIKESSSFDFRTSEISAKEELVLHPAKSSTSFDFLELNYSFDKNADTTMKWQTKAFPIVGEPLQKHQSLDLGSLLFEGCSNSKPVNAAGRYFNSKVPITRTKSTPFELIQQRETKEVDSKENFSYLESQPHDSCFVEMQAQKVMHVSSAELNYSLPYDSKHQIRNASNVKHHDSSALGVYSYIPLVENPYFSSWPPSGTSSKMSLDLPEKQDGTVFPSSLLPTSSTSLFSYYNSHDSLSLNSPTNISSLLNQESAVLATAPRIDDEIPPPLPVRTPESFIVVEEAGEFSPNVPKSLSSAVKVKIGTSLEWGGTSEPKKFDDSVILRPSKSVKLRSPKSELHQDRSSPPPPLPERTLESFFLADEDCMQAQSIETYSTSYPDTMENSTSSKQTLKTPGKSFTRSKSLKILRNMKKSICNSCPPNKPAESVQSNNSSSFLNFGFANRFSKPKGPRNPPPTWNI

[11] = target: T3, Low molecular weight phosphotyrosine protein phosphatase; type: functional; conditions: read-out: IC50_Mean; remark: listed apart in the source
[12] = mouse embryonic fibroblast toxicity – cell-based, plate reader, dry powder, set 2, cytotoxicity control, dose response (AID 652280); type: functional; conditions: NIH3T3
[13] = T. cruzi growth inhibition in host cells, dose response, cell-based, plate reader, dry powder, set 2 (AID 652275); type: functional
Paired box protein Pax-8 = Paired box protein Pax-8 (Homo sapiens, UniProt Q06710); assay: PAX8 transcriptional activity inhibition in RMG-I – RMG-I cells, luciferase, cherry-pick, dose response (AID 687027); type: functional, cell-based;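 also: luciferase reporter driven by Pax8 target thyroperoxidase promoter measured by SteadyGlo luminescence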
[14] = IGROV1 cell killing – plate reader, dry powder samples, PAX8 inhibitor project, dose response (AID 743043); type: functional, cell-based; conditions: IGROV-1
[15] = P. falciparum Dd2 growth inhibitors, dose response, SYBR Green, cherry-picked samples (AID 1159567); type: functional, cell-based
[16] = toxicity to human hepatoma HepG2 cells – cell-based, cherry-picked samples, cytotoxicity control, dose response (AID 1159577); type: functional
[17] = target: T5, Short transient receptor potential channel 4 (Mus musculus, UniProt Q9QUQ5); assay: calcium entry via TRPC4 opening agents – cell-based, HEK293 TRPC4/mu-opioid, Fluo-4 calcium, dose response (AID 434937); type: functional
T5 sequence (Q9QUQ5 whole entry): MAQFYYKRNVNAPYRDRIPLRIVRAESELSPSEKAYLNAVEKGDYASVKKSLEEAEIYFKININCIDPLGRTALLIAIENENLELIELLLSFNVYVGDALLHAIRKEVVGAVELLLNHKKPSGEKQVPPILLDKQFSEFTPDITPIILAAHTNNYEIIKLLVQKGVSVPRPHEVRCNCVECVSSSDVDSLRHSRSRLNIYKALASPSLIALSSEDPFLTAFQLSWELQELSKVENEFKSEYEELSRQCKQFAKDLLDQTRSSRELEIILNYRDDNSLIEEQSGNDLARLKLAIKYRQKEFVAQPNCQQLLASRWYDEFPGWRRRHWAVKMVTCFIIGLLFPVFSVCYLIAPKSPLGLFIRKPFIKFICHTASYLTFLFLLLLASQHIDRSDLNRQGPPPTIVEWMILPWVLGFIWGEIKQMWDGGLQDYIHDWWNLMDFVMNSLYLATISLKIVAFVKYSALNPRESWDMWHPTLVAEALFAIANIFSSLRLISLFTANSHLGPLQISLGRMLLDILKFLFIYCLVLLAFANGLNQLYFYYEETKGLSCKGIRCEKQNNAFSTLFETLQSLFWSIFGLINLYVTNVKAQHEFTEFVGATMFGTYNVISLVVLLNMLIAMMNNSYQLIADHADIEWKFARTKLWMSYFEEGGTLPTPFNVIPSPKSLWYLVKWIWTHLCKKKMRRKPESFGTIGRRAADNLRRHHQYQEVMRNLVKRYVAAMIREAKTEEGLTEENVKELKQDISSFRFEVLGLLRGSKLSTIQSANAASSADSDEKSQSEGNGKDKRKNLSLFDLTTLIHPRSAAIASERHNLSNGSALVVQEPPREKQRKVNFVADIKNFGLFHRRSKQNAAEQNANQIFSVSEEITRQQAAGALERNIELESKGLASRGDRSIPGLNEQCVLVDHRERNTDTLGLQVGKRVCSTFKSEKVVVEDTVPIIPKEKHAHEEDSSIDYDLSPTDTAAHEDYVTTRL

[18] = general mammalian cell viability loss – inhibitor set, cherry-pick, set 2, cytotoxicity control for miR-122 modulator project, dose response (AID 720697); type: functional, cell-based
[19] = general mammalian cell viability loss – activator set, cherry-pick, cytotoxicity control for miR-122 modulator project, dose response (AID 720690); type: functional, cell-based;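 also: HEK293T human cells scored for general mammalian cytotoxicity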
[20] = target: Long-chain-fatty-acid--AMP ligase FadD28 (Mycobacterium tuberculosis, UniProt P9WQ59); assay: Fluorescence polarization aasay to screen for inhibitors that compete for the binding of FadD28 to a bisubstrate Measured in Biochemical System Using Plate Reader - 2147-01_Inhibitor_Dose_CherryPick_Activity.; type: functional, Mycobacterium tuberculosis H37Rv
[21] = target: T6, Heat shock factor protein 1 (Mus musculus, UniProt P38532); assay: decrease of HSF1-responsive luciferase luminescence – cell-based, NIH3T3, dose retest, confirmation (AID 2382); type: functional;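 also: NIH3T3 fibroblasts with HSF1-driven luciferase reporter stressed by proteasome inhibitor MG132; luminescence from HSF1-driven luciferase expression after 8 hours of MG132 stress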
T6 sequence (P38532 whole entry): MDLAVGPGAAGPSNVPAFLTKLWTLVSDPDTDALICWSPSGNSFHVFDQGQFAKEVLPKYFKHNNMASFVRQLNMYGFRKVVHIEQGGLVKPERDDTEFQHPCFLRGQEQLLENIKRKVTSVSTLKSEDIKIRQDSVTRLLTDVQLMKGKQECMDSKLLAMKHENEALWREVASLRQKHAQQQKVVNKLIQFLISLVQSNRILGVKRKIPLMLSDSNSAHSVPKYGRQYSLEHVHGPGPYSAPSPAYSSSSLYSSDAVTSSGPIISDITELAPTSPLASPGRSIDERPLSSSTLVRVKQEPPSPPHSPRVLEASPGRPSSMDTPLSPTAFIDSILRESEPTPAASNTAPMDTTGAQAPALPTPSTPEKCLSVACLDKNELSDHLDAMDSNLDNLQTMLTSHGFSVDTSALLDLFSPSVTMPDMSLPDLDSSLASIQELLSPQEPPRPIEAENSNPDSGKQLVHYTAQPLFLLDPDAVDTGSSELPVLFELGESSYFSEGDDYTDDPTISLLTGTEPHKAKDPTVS

[22] = A549 cell cytotoxicity, dose response, cytotoxicity control, plate reader, cherry-pick, antagonist series (AID 743412); type: functional, cell-based
[23] = toxicity toward HepG2 liver cells – cell-based, plate reader, cherry-pick, antagonist series, cytotoxicity control, dose response (AID 743416); type: functional
[24] = blockers of bursicon-stimulated LGR2 cAMP reporter – cell-based, HEK293, CRE-luciferase reporter, cherry pick, set 2, dose response (AID 743343); type: functional;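 also: transfected cells were stimulated with diluted bursicon conditioned medium after compound addition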
[25] = blockade of melanocortin 4 receptor signaling – cell-based, plate reader, cherry pick, counter-screen for LGR2 antagonist project, dose response (AID 743444); type: functional;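 also: transfected HEK 293 cells stimulated with alpha-MSH peptide; potency of inhibitors of the alpha-MSH evoked signal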
[26] = viability loss in HEK293 cells – cell-based, plate reader, cherry-picked samples, cytotoxicity control, dose response (AID 743446); type: functional
[27] = target: T6, Heat shock factor protein 1; assay: enhancement of HSF1-driven luciferase signal – cell-based, NIH3T3, luminescence, dose retest, confirmation (AID 435004); type: functional;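 also: stress induced by proteasome inhibitor MG132 added 30 min after compound; luciferase reporter driven by HSF1 response element in NIH3T3 cells; actives raise luminescence as potentiators of the MG132 stress response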
Beta-galactosidase = Beta-galactosidase (Escherichia coli, UniProt Q8VNN2); assay: Dose response counterscreen for EBI2 assay utilizing the enzyme, b-galactosidase.; type: functional
Chain of Beta-galactosidase (Q8VNN2 whole entry): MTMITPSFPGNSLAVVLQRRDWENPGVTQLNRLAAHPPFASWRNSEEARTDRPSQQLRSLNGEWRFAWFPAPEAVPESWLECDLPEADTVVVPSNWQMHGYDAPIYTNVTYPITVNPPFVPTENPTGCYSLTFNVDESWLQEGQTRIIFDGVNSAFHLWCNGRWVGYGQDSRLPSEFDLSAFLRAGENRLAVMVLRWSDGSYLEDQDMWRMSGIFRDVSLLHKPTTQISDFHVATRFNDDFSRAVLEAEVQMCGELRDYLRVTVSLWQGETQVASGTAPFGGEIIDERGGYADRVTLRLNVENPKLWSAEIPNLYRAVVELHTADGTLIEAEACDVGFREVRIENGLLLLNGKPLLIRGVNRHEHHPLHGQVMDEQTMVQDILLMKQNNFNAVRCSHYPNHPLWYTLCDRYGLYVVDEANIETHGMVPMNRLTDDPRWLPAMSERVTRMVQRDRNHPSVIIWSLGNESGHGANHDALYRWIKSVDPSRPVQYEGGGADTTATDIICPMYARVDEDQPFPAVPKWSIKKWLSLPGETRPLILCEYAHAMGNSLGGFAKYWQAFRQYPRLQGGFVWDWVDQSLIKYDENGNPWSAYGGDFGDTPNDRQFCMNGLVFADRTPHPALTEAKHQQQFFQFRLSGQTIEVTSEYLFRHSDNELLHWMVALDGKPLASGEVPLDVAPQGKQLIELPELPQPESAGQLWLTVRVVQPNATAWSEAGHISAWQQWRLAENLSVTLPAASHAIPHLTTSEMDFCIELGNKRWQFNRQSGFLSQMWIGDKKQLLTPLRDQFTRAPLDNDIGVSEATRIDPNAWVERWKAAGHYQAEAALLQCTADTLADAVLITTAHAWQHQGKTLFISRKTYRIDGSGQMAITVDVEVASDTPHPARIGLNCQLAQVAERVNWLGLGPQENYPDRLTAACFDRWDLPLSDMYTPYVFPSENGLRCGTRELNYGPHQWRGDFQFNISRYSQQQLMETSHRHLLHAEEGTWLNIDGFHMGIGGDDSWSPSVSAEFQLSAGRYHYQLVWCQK

Chain of Tyrosine-protein phosphatase non-receptor type 5 (P54829 whole entry): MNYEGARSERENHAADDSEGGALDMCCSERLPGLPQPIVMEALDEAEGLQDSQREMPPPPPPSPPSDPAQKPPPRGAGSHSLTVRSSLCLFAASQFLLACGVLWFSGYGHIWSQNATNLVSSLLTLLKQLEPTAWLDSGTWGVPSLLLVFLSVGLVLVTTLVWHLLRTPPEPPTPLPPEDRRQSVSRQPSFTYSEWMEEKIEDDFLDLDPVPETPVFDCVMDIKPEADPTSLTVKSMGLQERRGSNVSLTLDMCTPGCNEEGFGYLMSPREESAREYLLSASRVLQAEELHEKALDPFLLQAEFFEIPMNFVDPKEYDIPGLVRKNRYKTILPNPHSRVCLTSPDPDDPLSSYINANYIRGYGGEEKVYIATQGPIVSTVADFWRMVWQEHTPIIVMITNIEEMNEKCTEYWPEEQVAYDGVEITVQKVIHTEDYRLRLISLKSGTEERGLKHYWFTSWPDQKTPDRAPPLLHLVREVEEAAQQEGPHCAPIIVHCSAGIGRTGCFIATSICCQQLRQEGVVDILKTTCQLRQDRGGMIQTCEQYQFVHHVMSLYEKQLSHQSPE
Chain of Dual specificity protein phosphatase 3 (P51452 whole entry): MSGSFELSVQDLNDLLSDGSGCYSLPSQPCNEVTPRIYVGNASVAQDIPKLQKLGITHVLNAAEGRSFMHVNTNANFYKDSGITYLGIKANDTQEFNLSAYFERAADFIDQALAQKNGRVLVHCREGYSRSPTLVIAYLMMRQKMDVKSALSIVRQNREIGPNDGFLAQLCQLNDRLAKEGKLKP
Chain of Tyrosine-protein phosphatase non-receptor type 11 (Q06124 whole entry): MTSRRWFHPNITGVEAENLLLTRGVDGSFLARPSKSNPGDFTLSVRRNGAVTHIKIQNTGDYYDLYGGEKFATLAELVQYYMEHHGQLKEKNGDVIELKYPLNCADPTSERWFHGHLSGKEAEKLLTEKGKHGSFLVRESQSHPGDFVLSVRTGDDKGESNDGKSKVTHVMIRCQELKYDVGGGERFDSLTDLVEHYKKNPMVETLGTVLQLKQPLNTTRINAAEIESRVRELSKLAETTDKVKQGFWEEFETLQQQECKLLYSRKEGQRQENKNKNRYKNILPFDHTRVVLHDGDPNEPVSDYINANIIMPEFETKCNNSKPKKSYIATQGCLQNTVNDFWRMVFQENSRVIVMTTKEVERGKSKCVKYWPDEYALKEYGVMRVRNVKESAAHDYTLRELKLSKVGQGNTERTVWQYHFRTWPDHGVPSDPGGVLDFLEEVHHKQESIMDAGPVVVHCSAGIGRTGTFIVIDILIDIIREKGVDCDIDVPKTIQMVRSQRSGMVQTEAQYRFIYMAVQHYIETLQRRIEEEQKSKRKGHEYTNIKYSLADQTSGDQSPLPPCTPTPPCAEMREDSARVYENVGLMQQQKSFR
T2 sequence (P63165 whole entry): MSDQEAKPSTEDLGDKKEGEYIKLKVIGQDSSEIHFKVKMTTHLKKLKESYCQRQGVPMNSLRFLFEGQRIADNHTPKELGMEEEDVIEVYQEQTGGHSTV
Chain of Paired box protein Pax-8 (Q06710 whole entry): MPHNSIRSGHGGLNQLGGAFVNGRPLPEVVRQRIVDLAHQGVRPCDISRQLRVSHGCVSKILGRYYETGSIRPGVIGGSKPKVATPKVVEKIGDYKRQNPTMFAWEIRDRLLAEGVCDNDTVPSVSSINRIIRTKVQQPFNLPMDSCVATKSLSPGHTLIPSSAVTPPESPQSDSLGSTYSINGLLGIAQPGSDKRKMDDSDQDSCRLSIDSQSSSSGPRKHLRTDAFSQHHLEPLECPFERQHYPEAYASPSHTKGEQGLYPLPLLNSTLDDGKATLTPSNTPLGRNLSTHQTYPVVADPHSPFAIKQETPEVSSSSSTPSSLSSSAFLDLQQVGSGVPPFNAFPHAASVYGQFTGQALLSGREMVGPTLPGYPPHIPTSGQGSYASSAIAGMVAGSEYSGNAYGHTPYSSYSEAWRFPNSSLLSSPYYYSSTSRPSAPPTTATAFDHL
Chain of Long-chain-fatty-acid--AMP ligase FadD28 (P9WQ59 whole entry): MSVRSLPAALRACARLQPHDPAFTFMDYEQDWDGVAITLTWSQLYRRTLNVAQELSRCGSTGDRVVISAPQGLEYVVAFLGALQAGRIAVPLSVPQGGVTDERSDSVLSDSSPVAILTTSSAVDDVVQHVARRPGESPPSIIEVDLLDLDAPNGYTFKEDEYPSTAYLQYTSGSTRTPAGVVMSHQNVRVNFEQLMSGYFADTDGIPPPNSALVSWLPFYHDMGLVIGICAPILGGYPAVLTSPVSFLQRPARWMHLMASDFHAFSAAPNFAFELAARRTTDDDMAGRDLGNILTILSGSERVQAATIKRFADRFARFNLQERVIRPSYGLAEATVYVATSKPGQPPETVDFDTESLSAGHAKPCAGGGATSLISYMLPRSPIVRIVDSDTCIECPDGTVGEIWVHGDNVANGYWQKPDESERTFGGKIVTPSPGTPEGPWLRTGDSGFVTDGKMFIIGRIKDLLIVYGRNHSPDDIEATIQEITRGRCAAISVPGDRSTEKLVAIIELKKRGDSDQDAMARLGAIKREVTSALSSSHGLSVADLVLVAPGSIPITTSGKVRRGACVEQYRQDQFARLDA

Cc1cc(C)nc(SCc2ccc(C(=O)N/N=C/c3cccc(O)c3O)cc2)n1
AC50 [1]: 3.83 µM (active)
AC50 (HEK293): 9.36 µM (active)
AC50 (INS1): 2.22 µM (active)
IC50 [2]: > 122 µM (inactive)

Cc1cc(C(=O)N/N=C/c2ccc(-c3ccc([N+](=O)[O-])cc3Cl)o2)[nH]n1
IC50 [3]: 7.05 µM (active)
IC50 [4]: 3.42 µM (active)
IC50 [5]: 6.83 µM (active)
IC50 [6]: 1.36 µM (active)
IC50 [7]: > 66.6 µM (inactive)
IC50 [8]: > 80 µM (inactive)
IC50 [9]: 13.8 µM (active)
IC50 [10]: > 100 µM (inactive)
IC50 [11]: 19 µM (active)

CC(C)N1C[C@@H](CN(C)Cc2ccc(Oc3ccccc3)cc2)Oc2c(NC(=O)c3ccncc3)cccc2C1=O
AC50 [12]: 2.36 µM (active)
AC50 [13]: 0.00223 µM (active)

C[C@@H]1CN([C@@H](C)CO)C(=O)Cc2cc(NC(=O)Nc3ccccc3)ccc2O[C@H]1CN(C)Cc1ccc(Oc2ccccc2)cc1
AC50 (Paired box protein Pax-8): 9.84 µM (active)
AC50 [14]: 55.6 µM (active)
AC50 [15]: 1.05 µM (active)
AC50 [16]: 12.9 µM (active)

FC(F)(F)c1cnc(N2CCCN(C(S)=Nc3ccccc3)CC2)c(Cl)c1
EC50 [17]: 0.421 µM (active)
AC50 [18]: 3.78 µM (active)
AC50 [19]: 26.9 µM (active)

CCn1c(C)cc(/C=C2\NC(=O)N(CC(=O)Nc3cccc(C)c3)C2=O)c1C
AC50 [20]: 77.2 µM (active)

O=C(O)c1ccc2nc(-c3ccccc3)sc2c1
EC50 [21]: 5.85 µM (active)
AC50 [22]: > 52 µM (inactive)
AC50 [23]: > 52 µM (inactive)
AC50 [24]: 3.7 µM (active)
AC50 [25]: 3.35 µM (active)
AC50 [26]: > 52 µM (inactive)

CCn1cc(C(=O)NN)c(=O)c2cc(F)c(NC3CCCCC3)cc21
EC50 [27]: > 260 µM (inactive)
IC50 (Beta-galactosidase): > 80 µM (inactive)

O=C(NN=C(S)Nc1ccc(F)cc1)[C@H]1C[C@@H]1c1ccccc1
IC50 [2]: > 122 µM (inactive)

CC(C)N1CC[C@@H](CN(C)Cc2ccc(Oc3ccccc3)cc2)Oc2c(NC(=O)c3ccncc3)cccc2C1=O
AC50 [12]: 23.4 µM (active)
AC50 [13]: 0.0195 µM (active)

COc1ccc(Cl)cc1N=C(S)N(CCCN1CCOCC1)Cc1cn(C)c2ccccc12
IC50 [4]: 2.07 µM (active)
IC50 [5]: 13.9 µM (active)
IC50 [6]: 0.754 µM (active)
IC50 [10]: 38.5 µM (inactive)
